Here are results for two molecules from patent US20140162875A1, “N-Thio-Anthranilamide Compounds and Their Use as Pesticides” (BASF SE, priority 2011, published 2014).

What all share (assay type): in vivo
Data set [1] relates to Mediterranean fruitfly (Ceratitis capitata). The data set is described as follows: Mediterranean fruitfly microtiter plate insect diet test. Conditions: 120 h, egg and larval mortality after 5 days, read-out: mortality in comparison with untreated controls. As for the experimental part:
For evaluating control of Mediterranean fruitfly (Ceratitis capitata) the test unit consisted of microtiter plates containing an insect diet and 50-80 C. capitata eggs.
(§1) The compounds were formulated using a solution containing 75% v/v water and 25% v/v DMSO. Different concentrations of formulated compounds were sprayed onto the insect diet at 5 μl, using a custom built micro atomizer, at two replications.
After application, microtiter plates were incubated at about 28±1° C. and about 80±5% relative humidity for 5 days. Egg and larval mortality was then visually assessed.

Data set [2] concerns Diamond Back Moth (Plutella Xylostella). The data set can be described thus: Diamond back moth cabbage leaf dip test. Conditions: foliar, dipped cabbage leaves, 3rd instar larvae, 72 hours after treatment, read-out: mortality in comparison with untreated controls. Here is the method: (§2) The active compound was dissolved at the desired concentration in a mixture of 1:1 (vol:vol) distilled water:acetone. Surfactant (Alkamuls® EL 620) is added at a rate of 0.1% (vol/vol). The test solution was prepared at the day of use.
Leaves of cabbage were dipped in test solution and air-dried. Treated leaves were placed in petri dishes lined with moist filter paper and inoculated with ten 3rd instar larvae. Mortality was recorded 72 hours after treatment. Feeding damages were also recorded using a scale of 0-100%.

The subject of data set [3] is vetch aphid (Megoura viciae). The data set can be described thus: Vetch aphid broad bean leaf disk microtiter test. As to conditions: foliar, 120 h, adult aphids on broad bean leaf disks, 5 days, read-out: mortality in comparison with untreated controls. As for the experimental part: For evaluating control of vetch aphid (Megoura viciae) through contact or systemic means the test unit consisted of 24-well-microtiter plates containing broad bean leaf disks.
The compounds were formulated using a solution containing 75% v/v water and 25% v/v DMSO. Different concentrations of formulated compounds were sprayed onto the leaf disks at 2.5 μl, using a custom built micro atomizer, at two replications.
After application, the leaf disks were air-dried and 5-8 adult aphids placed on the leaf disks inside the microtiter plate wells. The aphids were then allowed to suck on the treated leaf disks and incubated at about 23±1° C. and about 50±5% relative humidity for 5 days. Aphid mortality and fecundity was then visually assessed.

The subject of data set [4] is Cowpea Aphid (Aphis Craccivora). The data set is described as follows: Cowpea aphid spray test on potted cowpea plants. As to conditions: sprayed cowpea plants, assessed after 72 hours, read-out: mortality in comparison with untreated controls. Here is the method:
as §2
Potted cowpea plants were colonized with approximately 50-100 aphids of various stages by manually transferring a leaf tissue cut from infested plant 24 hours before application. Plants were sprayed after the pest population has been recorded. Treated plants were maintained on light carts at about 28° C. Percent mortality was assessed after 72 hours.

Data set [5] has as its system boll weevil (Anthonomus grandis). The data set can be described thus: Boll weevil microtiter plate insect diet test. Conditions: 120 h, egg and larval mortality after 5 days, read-out: mortality in comparison with untreated controls. As for the experimental part:
For evaluating control of boll weevil (Anthonomus grandis) the test unit consisted of 96-well-microtiter plates containing an insect diet and 5-10 A. grandis eggs.
as §1
After application, microtiter plates were incubated at about 25±1° C. and about 75±5% relative humidity for 5 days. Egg and larval mortality was then visually assessed.

The subject of data set [6] is Southern Armyworm (Spodoptera Eridania). The data set is described as follows: Southern armyworm lima bean plant spray test. Conditions: 96 h, larvae on sprayed lima bean plants, 4 days after treatment, read-out: mortality in comparison with untreated controls. Here is the method:
(§3) The active compounds were formulated in cyclohexanone as a 10,000 ppm solution supplied in tubes. The tubes were inserted into an automated electrostatic sprayer equipped with an atomizing nozzle and they served as stock solutions for which lower dilutions were made in 50% acetone:50% water (v/v). A nonionic surfactant (Kinetic®) was included in the solution at a volume of 0.01% (v/v).
(§4) Lima bean plants (variety Sieva) were grown 2 plants to a pot and selected for treatment at the 1st true leaf stage. Test solutions were sprayed onto the foliage by an automated electrostatic plant sprayer equipped with an atomizing spray nozzle. The plants were dried in the sprayer fume hood and then removed from the sprayer. Each pot was placed into perforated plastic bags with a zip closure. About 10 to 11 armyworm larvae were placed into the bag and the bags zipped closed. Test plants were maintained in a growth room at about 25° C. and about 20-40% relative humidity for 4 days, avoiding direct exposure to fluorescent light (24 hour photoperiod) to prevent trapping of heat inside the bags. Mortality and reduced feeding were assessed 4 days after treatment, compared to untreated control plants.

For data set [7], the system named is Colorado Potato Beetle (Leptinotarsa Decemlineata). The data set can be described thus: Colorado potato beetle eggplant foliage spray test. As to conditions: foliar, 96 h, beetle larvae on sprayed eggplant foliage, 4 days after treatment, read-out: mortality in comparison with untreated controls. Here is the method: as §3
Eggplants were grown 2 plants to a pot and were selected for treatment at the 1st true leaf stage. Test solutions were sprayed onto the foliage by an automated electrostatic plant sprayer equipped with an atomizing spray nozzle. The plants were dried in the sprayer fume hood and then removed from the sprayer. The treated foliage was then cut and removed from the pot and placed in a Petri dish lined with moistened filter paper. Five beetle larvae were introduced into each Petri dish and the dish was covered by a Petri dish lid. Petri dishes were maintained in a growth room at about 25° C. and about 20-40% relative humidity for 4 days, avoiding direct exposure to fluorescent light (24 hour photoperiod) to prevent trapping of heat inside the dishes. Mortality and reduced feeding were assessed 4 days after treatment, compared to untreated control plants.

For data set [8], the system named is Tobacco Budworm (Heliothis Virescens). The data set is described as follows: Tobacco budworm cotton plant spray test. Conditions: 96 h, larvae on sprayed cotton plants, 4 days after treatment, read-out: mortality in comparison with untreated controls. As for the experimental part: as §3
as §4, with “Cotton” for “Lima bean”, “plants” for “plants (variety Sieva)”, “cotyledon” for “1st true leaf”, “budworm” for “armyworm”

The test system of data set [9] is Orchid Thrips (Dichromothrips Corbetti). The data set can be described thus: Orchid thrips floral-immersion test. As to conditions: adult thrips on dipped orchid flowers, 72 hours after treatment, read-out: mortality in comparison with untreated controls. As for the experimental part:
Dichromothrips corbetti adults used for bioassay are obtained from a colony maintained continuously under laboratory conditions. For testing purposes, the test compound was diluted in a 1:1 mixture of acetone:water (vol:vol), plus 0.01% vol/vol Alkamuls® EL 620 surfactant.
Thrips potency of each compound was evaluated by using a floral-immersion technique. Plastic petri dishes were used as test arenas. All petals of individual, intact orchid flowers are dipped into treatment solution and allowed to dry. Treated flowers were placed into individual petri dishes along with −about 20 adult thrips. The petri dishes were then covered with lids. All test arenas were held under continuous light and a temperature of about 28° C. for duration of the assay. After 3 days, the numbers of live thrips were counted on each flower, and along inner walls of each petri dish. The percent mortality was recorded 72 hours after treatment.

Data set [10] has as its system Silverleaf Whitefly (Bemisia Argentifolii). The data set can be described thus: Silverleaf whitefly cotton plant spray test. Conditions: 300 ppm; whitefly adults on sprayed cotton plants; 3 days after treatment.
Description: as §3
Cotton plants at the cotyledon stage (one plant per pot) were sprayed by an automated electrostatic plant sprayer equipped with an atomizing spray nozzle. The plants were dried in the sprayer fume hood and then removed from the sprayer. Each pot was placed into a plastic cup and about 10 to 12 whitefly adults (approximately 3-5 days old) were introduced. The insects were collected using an aspirator and a nontoxic Tygon® tubing connected to a barrier pipette tip. The tip, containing the collected insects, was then gently inserted into the soil containing the treated plant, allowing insects to crawl out of the tip to reach the foliage for feeding. Cups were covered with a reusable screened lid. Test plants were maintained in a growth room at about 25° C. and about 20-40% relative humidity for 3 days, avoiding direct exposure to fluorescent light (24 hour photoperiod) to prevent trapping of heat inside the cup. Mortality was assessed 3 days after treatment, compared to untreated control plants.

Regarding `Cc1cc(Cl)cc(C(=O)/N=S2/CCSC2)c1NC(=O)c1cnn(CC(F)(F)F)c1-c1ncccc1Cl` (stereo not shown) [Compound 1-1, N-[4-chloro-2-((Z)-1,3-dithiolan-1-ylidenecarbamoyl)-6-methyl-phenyl]-5-(3-chloro-2-pyridyl)-1-(2,2,2-trifluoroethyl)pyrazole-4-carboxamide], the mortality at 2500 ppm in [1], in data set [3], in data set [5] and in data set [8] was at least 75% in each case. The mortality at 300 ppm in data set [2], in [4], in [6], in [7] and in data set [9] was at least 75% in each case.

Turning to `Cc1cc(Cl)cc(C(=O)N=S(C(C)C)C(C)C)c1NC(=O)c1cnn(CC(F)(F)F)c1-c1ncccc1Cl` [Compound 1-2], the “mortality in comparison with untreated controls” value in data set [10] is “at least 75%”.
